Results on 3 compounds are retold here after patent publication US20230285399A1, “Compound for the treatment and prophylaxis of a lipofuscin-associated disease and/or a disease associated with aged oxidized melanin” (EBERHARD KARLS UNIVERSITAET TUEBINGEN MEDIZINISCHE FAKULTAET, priority 2020, published 2023).

“Also recorded” adds a separate entry of the source.

Data set [1] has as its system pigmented Abca^4−/− mice. Particulars: mouse, in vivo.
The subject of data set [2] is function of the retina. Particulars: mouse, in vivo.
Data set [3] deals with pigmented Abca^4−/− mice. Kind of data set: Combination of SIN-1 with riboflavin, quantification of fluorescent lipofuscin granules. The format is in vivo. Particulars: 130 μg SIN-1 alone or with 80 μg Riboflavin, intravitreal, 48 hours; 100% is stated as locally.
Data set [4] has as its system albino Abca^4−/− mice. Kind of data set: Removal of lipofuscin from RPE with SIN-1, fluorescence microscopy (SW-AF) of semi-thin eye sections. The format is in vivo. Particulars: 130 μg SIN-1 into the right eye, 48 hours, vs untreated eyes. How it is done: Pigmented WT mice (12952), pigmented Abca^4-/- mice (12954/SvJae-Abca4[…] albino Abca^4-/- mice^(BALB/c-Abca4tm1Ght) (Stargardt mice) were used in this work. WT mice were purchased from Harlan Laboratories ([…], UK), the knock-out strains were bred in the inventor's in-house facility. Light cycling was 12 h light (approximately 50 lx in cages)/12 h dark, food and water were available ad libitum. Animals were anesthetized by i.p. injection of a mix of fentanyl (0.05 mg/kg body weight), midazolam (5.0 mg/kg body weight) and medetomidine (0.50 mg/kg body weight). […] The mice were 2 years old. The left eyes remained untreated as controls. The mice were killed 48 hours after the injections and the eyes were […]. Mouse eyes were fixed, embedded in epon resin and sectioned according to standard procedures. For fluorescence analysis, post-fixation and staining with heavy metals was omitted. […] Binning x2 was applied for all images and acquisition times, as well as microscope and software settings were held constant for any set of samples to allow comparison of fluorescence intensities. […] Fluorescence intensities were determined using Fiji software. Regions of interest were determined in fluorescence and BF images using the default threshold, and area and integrated optical density (IOD) of the region of interest were measured. […]

The subject of data set [5] is albino Abca^4−/− mice. Kind of data set: Analysis of degradation products from lipofuscin (bisretinoids) after SIN-1 by HPLC. The format is in vivo. Particulars: 130 μg SIN-1 into the right eye, 48 hours, 6 month old albino mice. The protocol:
(§1) Seven albino and 6 pigmented mice were used. The left eyes remained untreated as control. After 48 hours the eyes from the Abca^4-/- mice were enucleated, immediately snap-frozen and stored at -80° C. for further processing. All the tissue preparation was made under dim red light and bisretinoids were extracted from the whole eyes and analyzed by HPLC following published protocols (Radu et al. 2004; Fang et al. 2020). Data were presented as picomoles per eye for A2E, iso-A2E, Total A2E or milli-absorbance (mAU) per eye for the other bisretinoids: […], dihydro-A2PE (A2PE-H2), and all-trans-RAL-dimer PE conjugates (at-RAL dimer-PE) as described (Radu et al. 2004).

Data set [6] concerns pigmented Abca^4−/− mice. The data set is described as above. Particulars: 130 μg SIN-1 into the right eye, 48 hours, 6 month old mice, whole eyes; stated for all mice. Format: in vivo. The protocol: as §1
Data set [7] concerns pigmented Abca^4−/− mice. Kind of data set: Removal of lipofuscin from RPE with SIN-1, fluorescence microscopy (SW-AF, NIR-AF) of semi-thin eye sections. The format is in vivo. The protocol:
Pigmented WT mice (12952), pigmented Abca^4-/- mice (12954/SvJae-Abca4[…] albino Abca^4-/- mice^(BALB/c-Abca4tm1Ght) (Stargardt mice) were used in this work. WT mice were purchased from Harlan Laboratories ([…], UK), the knock-out strains were bred in the inventor's in-house facility. Light cycling was 12 h light (approximately 50 lx in cages)/12 h dark, food and water were available ad libitum. Animals were anesthetized by i.p. injection of a mix of fentanyl (0.05 mg/kg body weight), midazolam (5.0 mg/kg body weight) and medetomidine (0.50 mg/kg body weight). […] The mice were 2 years old. The left eyes remained untreated as controls. The mice were killed 48 hours after the injections and the eyes were […]. Mouse eyes were fixed, embedded in epon resin and sectioned according to standard procedures. For fluorescence analysis, post-fixation and staining with heavy metals was omitted. […] Filter sets were a custom made lipofuscin filter set (excitation 370/36 nm, emission 575/15, 400 nm beam splitter) for short wavelength-autofluorescence (SW-AF) and a commercial Cy7 filter set (excitation 708/75 nm, emission 809/81 nm, 757 nm beam splitter) for NIR-AF (Near infrared AF), respectively. The lipofuscin filter set is designed to fit the reported excitation and emission maximums for lipofuscin. Binning x2 was applied for all images and acquisition times, as well as microscope and software settings were held constant for any set of samples to allow comparison of fluorescence intensities. If indicated, images with low AF intensities were post-processed with the Auto adjust colors function of the […] software to allow the localization of weak AF signals. This function enhances the contrast by redefining the darkest pixel as pure black and the brightest pixel as pure white in the histogram on a channel-by-channel basis. Fluorescence intensities were determined using Fiji software. Regions of interest were determined in fluorescence and BF images using the default threshold, and area and integrated optical density (IOD) of the region of interest were measured. […] Student's t-test with JMP 13 software (SAS, Cary, NC, USA) was used for statistical analysis. P<0·05 was considered statistically significant.

Where [8] appears, read: SIN-1 treated eye vs untreated eye of the same mouse.

As for `O=[N+]([O-])O[C@@H]1CO[C@H]2[C@@H]1OC[C@@H]2O` [IS5, Isosorbide mononitrate], in data set [1], the “fluorescence of lipofuscin (fluorescence intensity, arbitrary units, FIG. 3)” value is given as “removed the fluorescence of lipofuscin” and the “reduction of the amount of fluorescent lipofuscin granules” value is on record as 77%. Moreover, the “ERG responses, treated vs untreated eye” value in data set [2] is “no difference between the treated and the untreated eyes”.

Take `N=c1c[n+](N2CCOCC2)[n-]o1` [SIN-1, 3-morpholinosydnonimine]: the “removal of fluorescent lipofuscin granules from the RPE cells” value in data set [3] stood at 75%. The “fluorescence of lipofuscin (SW-AF)” value in data set [4] is recorded as “no effect”. Also, the “enhancement of lipofuscin metabolites in albino mice compared with pigmented mice” value in data set [5] is “much lesser”. Further, the “amount of degradation products of lipofuscin (A2E, iso-A2E, Total A2E, A2PE, A2PE-H2, at-RAL dimer-PE)” value in data set [6] was “enhanced the amount of the degradation products of lipofuscin significantly”. In addition, the “lipofuscin content in the retinal pigment epithelium (RPE), recognized by the loss of SW-AF” value in data set [7] (130 μg SIN-1 into the right eye, 48 hours, mean of 5 eyes vs 5 untreated eyes, mice 2 years old) is “significant (p<0.05) reduction”. Also, the “NIR-AF fluorescence of the melanosomes (RPE)” value in data set [7] (130 μg SIN-1 into the right eye, 48 hours, vs untreated eye) was “reduced but not significant (p>0.05); also recorded: somewhat diminished”. Moreover, in data set [7] (setting [8]), the “NIR-AF in the melanosomes of the choroidal melanocytes” value was “seems to be not effected” and the “number of lipofuscin granules in SW-AF image of semi thin sections” value is recorded as “reduced in number”.

Take `O=[N+]([O-])OC1COC2C(O[N+](=O)[O-])COC12` (centres unmarked) [Isoket, 3,6-bisnitrooxyhexahydrofuro[3,2-b]-furan]: in data set [1], the “fluorescence of lipofuscin (fluorescence intensity, arbitrary units, FIG. 3)” value is “removed the fluorescence of lipofuscin” and the “number of lipofuscin granules in RPE cell layer under the fluorescence microscope (FIG. 4)” value is “reduced the number of lipofuscin granules clearly”. Moreover, the “ERG responses, treated vs untreated eye” value in data set [2] was “no difference between the treated and the untreated eyes”.
